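Grown in 96-well plates, cells were treated for 48 hours with each compound at five concentrations. Insufficient inhibition: endpoint recorded as highest concentration tested. The concentration for 50% growth inhibition is given as GI50.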 The source made the active and inactive calls. Rule as the data show it: active = GI50 up to about 1.1 µM and inactive = higher.
Tests used:
Assay in all cases: growth of human tumour cells (NCI), 48 h
CCRF-CEM = test system: CCRF-CEM
NCI-H23 = test system: NCI-H23
SF-539 = test system: SF-539
MCF7 = test system: MCF7
SK-MEL-2 = test system: SK-MEL-2
NCI-H522 = test system: NCI-H522
Hs-578T = test system: Hs-578T
HOP-92 = test system: HOP-92
HOP-62 = test system: HOP-62
COLO 205 = test system: COLO 205
OVCAR-5 = test system: OVCAR-5
KM12 = test system: KM12
NCI-H226 = test system: NCI-H226
786-0 = test system: 786-0
BT-549 = test system: BT-549
MDA-N = test system: MDA-N
NCI/ADR-RES = test system: NCI/ADR-RES
ACHN = test system: ACHN
MDA-MB-435 = test system: MDA-MB-435
K562 = test system: K562
RXF 393 = test system: RXF 393
MDA-MB-231 = test system: MDA-MB-231
Malme-3M = test system: Malme-3M
SR = test system: SR
PC-3 = test system: PC-3
MOLT-4 = test system: MOLT-4
SF-295 = test system: SF-295
NCI-H460 = test system: NCI-H460
M14 = test system: M14
SF-268 = test system: SF-268
SK-OV-3 = test system: SK-OV-3
TK-10 = test system: TK-10
SW-620 = test system: SW-620
CAKI-1 = test system: CAKI-1
IGROV-1 = test system: IGROV-1
A498 = test system: A498
HT-29 = test system: HT-29
A549 = test system: A549
EKVX = test system: EKVX
UACC-257 = test system: UACC-257
T47D = test system: T47D
OVCAR-4 = test system: OVCAR-4
RPMI-8226 = test system: RPMI-8226
HCT-15 = test system: HCT-15
SNB-75 = test system: SNB-75
SK-MEL-5 = test system: SK-MEL-5
HCT-116 = test system: HCT-116
HL-60 = test system: HL-60
DU-145 = test system: DU-145
SK-MEL-28 = test system: SK-MEL-28
UACC-62 = test system: UACC-62
UO-31 = test system: UO-31
U-251 = test system: U-251
LOX IMVI = test system: LOX IMVI
OVCAR-3 = test system: OVCAR-3
SN12C = test system: SN12C
OVCAR-8 = test system: OVCAR-8
SNB-19 = test system: SNB-19

## CCOC(=O)C1(CC(=O)O)CCCC1=O (stereo not drawn)
CCRF-CEM
  GI50: > 100 µM (inactive)
NCI-H23
  GI50: > 100 µM (inactive)
SF-539
  GI50: > 100 µM (inactive)
MCF7
  GI50: > 100 µM (inactive)
SK-MEL-2
  GI50: > 100 µM (inactive)
NCI-H522
  GI50: > 100 µM (inactive)
Hs-578T
  GI50: > 100 µM (inactive)
HOP-92
  GI50: > 100 µM (inactive)
HOP-62
  GI50: > 100 µM (inactive)
COLO 205
  GI50: > 100 µM (inactive)
OVCAR-5
  GI50: > 100 µM (inactive)
KM12
  GI50: > 100 µM (inactive)
NCI-H226
  GI50: > 100 µM (inactive)
786-0
  GI50: > 100 µM (inactive)
BT-549
  GI50: > 100 µM (inactive)
MDA-N
  GI50: > 100 µM (inactive)
NCI/ADR-RES
  GI50: > 100 µM (inactive)
ACHN
  GI50: > 100 µM (inactive)
MDA-MB-435
  GI50: > 100 µM (inactive)
K562
  GI50: > 100 µM (inactive)
RXF 393
  GI50: > 100 µM (inactive)
MDA-MB-231
  GI50: > 100 µM (inactive)
Malme-3M
  GI50: > 100 µM (inactive)
SR
  GI50: > 100 µM (inactive)
PC-3
  GI50: > 100 µM (inactive)
MOLT-4
  GI50: 0.475 µM (active)
SF-295
  GI50: > 100 µM (inactive)
NCI-H460
  GI50: > 100 µM (inactive)
M14
  GI50: > 100 µM (inactive)
SF-268
  GI50: > 100 µM (inactive)
SK-OV-3
  GI50: > 100 µM (inactive)
TK-10
  GI50: > 100 µM (inactive)
SW-620
  GI50: > 100 µM (inactive)
CAKI-1
  GI50: > 100 µM (inactive)
IGROV-1
  GI50: > 100 µM (inactive)
A498
  GI50: > 100 µM (inactive)
HT-29
  GI50: > 100 µM (inactive)
A549
  GI50: > 100 µM (inactive)
EKVX
  GI50: > 100 µM (inactive)
UACC-257
  GI50: > 100 µM (inactive)
T47D
  GI50: > 100 µM (inactive)
OVCAR-4
  GI50: > 100 µM (inactive)
RPMI-8226
  GI50: > 100 µM (inactive)
HCT-15
  GI50: > 100 µM
SNB-75
  GI50: > 100 µM (inactive)
SK-MEL-5
  GI50: > 100 µM (inactive)
HCT-116
  GI50: > 100 µM (inactive)
HL-60
  GI50: > 100 µM (inactive)
DU-145
  GI50: > 100 µM (inactive)
SK-MEL-28
  GI50: > 100 µM (inactive)
UACC-62
  GI50: > 100 µM (inactive)
UO-31
  GI50: > 100 µM (inactive)
U-251
  GI50: > 100 µM (inactive)
LOX IMVI
  GI50: > 100 µM (inactive)
OVCAR-3
  GI50: > 100 µM (inactive)
SN12C
  GI50: > 100 µM (inactive)
OVCAR-8
  GI50: > 100 µM (inactive)
SNB-19
  GI50: > 100 µM (inactive)

Reference: ChEMBL document CHEMBL1201862, “PubChem BioAssay data set” (2004)
